Test results reported in patent US10105357B2, “Indication of antibiotic drugs for preparation of cancer inhibition pharmaceutical composition” (LAUNX BIOMEDICAL CO., LTD., priority 2014, dated 2018).

Key:
[1] = test system: HI650 (Lung Adenocarcinoma); test: Cell viability analysis, lung cancer HI650; format: cell-based, human
[2] = test system: AGS (Gastric Adenocarcinoma); test: Cell viability analysis, gastric cancer AGS; format: cell-based, human
[3] = test system: MKN-45 (Gastric Adenocarcinoma); test: Cell viability analysis, gastric cancer MKN-45; format: cell-based, human
[4] = test system: HepG2 (Hepatocellular Carcinoma); test: Cell viability analysis, hepatic cancer HepG2; format: cell-based, human
[5] = test system: Hep3B (hepatocellular carcinoma); test: Cell viability analysis, hepatic cancer Hep3B; format: cell-based, human
[6] = test system: LoVo (Colorectal Adenocarcinoma); test: Cell viability analysis, colon cancer LoVo; format: cell-based, human
[7] = test system: A375 (Amelanotic Melanoma); test: Cell viability analysis, skin cancer A375; format: cell-based, human
[8] = test system: BCC (basal cell carcinoma); test: Cell viability analysis, skin cancer BCC; format: cell-based, human
[9] = test system: HeLa (Cervix Adenocarcinoma); test: Cell viability analysis, cervical cancer HeLa; format: cell-based, human
[10] = test system: C-33A (Cervical carcinoma); test: Cell viability analysis, cervical cancer C-33A; format: cell-based, human
[11] = test system: PC3 (p53−) (Prostate Adenocarcinoma); test: Cell viability analysis, prostate cancer PC3; format: cell-based, human
[12] = test system: TSGH-8301 (Urinary Bladder Carcinoma); test: Cell viability analysis, bladder cancer TSGH-8301; format: cell-based, human
[13] = test system: T24; test: Cell viability analysis, bladder cancer T24; format: cell-based, human
[14] = test system: MCF7 (Mammary Gland, Adenocarcinoma); test: Cell viability analysis, breast cancer MCF7; format: cell-based, human
[15] = test system: MDA-MB-231 (Mammary Gland, Adenocarcinoma); test: Cell viability analysis, breast cancer MDA-MB-231; format: cell-based, human
[16] = test system: BxPC-3; test: Cell viability analysis, pancreatic cancer BxPC-3; format: cell-based, human
[17] = test system: AsPC-1; test: Cell viability analysis, pancreatic cancer AsPC-1; format: cell-based, human
[18] = test system: NIH: OVCAR-3; test: Cell viability analysis, ovarian cancer NIH: OVCAR-3; format: cell-based, human
[19] = test system: TOV-21G; test: Cell viability analysis, ovarian cancer TOV-21G; format: cell-based, human
[20] = test system: SAS (Tongue squamous cell carcinoma); test: Cell viability analysis, tongue cancer SAS; format: cell-based, human
[21] = test system: U-2OS; test: Cell viability analysis, osteosarcoma U-2OS; format: cell-based, human
[22] = test system: 786-O (Renal adenocarcinoma); test: Cell viability analysis, renal cancer 786-O; format: cell-based, human
[23] = test system: HCT116 (p53+) (Colorectal Carcinoma)
[24] = test system: A549 (Lung Adenocarcinoma); test: Cell viability analysis, lung cancer A549; format: cell-based, human

CC[C@H](C)C(=O)O[C@H]1CCC=C2C=C[C@H](C)[C@H](CC[C@@H]3C[C@@H](O)CC(=O)O3)[C@H]21 [Mevastatin]
viability at 10 µM ([1]; Homo sapiens, NCI-H1650, 72 h, H1650, repeated experiment, read-out: The results of antibiotic drug inhibiting cancer cell lines (cell viability analysis), H1650): 69.4%
viability at 10 µM ([2]; Homo sapiens, 72 h, AGS, repeated experiment, read-out: The results of antibiotic drug inhibiting cancer cell lines (cell viability analysis), AGS): 71.2%
viability at 10 µM ([3]; Homo sapiens, MKN-45, 72 h, MKN-45, repeated experiment, read-out: The results of antibiotic drug inhibiting cancer cell lines (cell viability analysis), MKN-45): 92.7%
viability at 10 µM ([4]; Homo sapiens, HepG2, 72 h, HepG2, repeated experiment, read-out: The results of antibiotic drug inhibiting cancer cell lines (cell viability analysis), HepG2): 98.7%
viability at 10 µM ([5]; Homo sapiens, 72 h, Hep3B, repeated experiment, read-out: The results of antibiotic drug inhibiting cancer cell lines (cell viability analysis), Hep3B): 97.7%
viability at 10 µM ([6]; Homo sapiens, LoVo, 72 h, read-out: The results of antibiotic drug inhibiting cancer cell lines (cell viability analysis), LoVo, repeated experiment): 90.5%
viability at 10 µM ([7]; Homo sapiens, A-375, 72 h, A375, repeated experiment, read-out: The results of antibiotic drug inhibiting cancer cell lines (cell viability analysis), A375): 30.9%
viability at 10 µM ([8]; Homo sapiens, 72 h, BCC, repeated experiment, read-out: The results of antibiotic drug inhibiting cancer cell lines (cell viability analysis), BCC): 29.8%
viability at 10 µM ([9]; Homo sapiens, HeLa, 72 h, HeLa, repeated experiment, read-out: The results of antibiotic drug inhibiting cancer cell lines (cell viability analysis), HeLa): 90.5%
viability at 10 µM ([10]; Homo sapiens, 72 h, C-33A, repeated experiment, read-out: The results of antibiotic drug inhibiting cancer cell lines (cell viability analysis), C-33A): 102%
viability at 10 µM ([11]; Homo sapiens, 72 h, PC-3, repeated experiment, read-out: The results of antibiotic drug inhibiting cancer cell lines (cell viability analysis), PC-3): 65.6%
viability at 10 µM ([12]; Homo sapiens, 72 h, TSGH-8301, repeated experiment, read-out: The results of antibiotic drug inhibiting cancer cell lines (cell viability analysis), TSGH-8301): 94.4%
viability at 10 µM ([13]; Homo sapiens, T-24, 72 h, T24, repeated experiment, read-out: The results of antibiotic drug inhibiting cancer cell lines (cell viability analysis), T24): 67.5%
viability at 10 µM ([14]; Homo sapiens, MCF7, 72 h, MCF-7, repeated experiment, read-out: The results of antibiotic drug inhibiting cancer cell lines (cell viability analysis), MCF-7): 77.8%
viability at 10 µM ([15]; Homo sapiens, MDA-MB-231, 72 h, MDA-MB231, repeated experiment, read-out: The results of antibiotic drug inhibiting cancer cell lines (cell viability analysis), MDA-MB231): 56.1%
viability at 10 µM ([16]; Homo sapiens, 72 h, BxPC-3, repeated experiment, read-out: The results of antibiotic drug inhibiting cancer cell lines (cell viability analysis), BxPC-3): 83.6%
viability at 10 µM ([17]; Homo sapiens, ASPC1, 72 h, AsPC-1, repeated experiment, read-out: The results of antibiotic drug inhibiting cancer cell lines (cell viability analysis), AsPC-1): 72.3%
viability at 10 µM ([18]; Homo sapiens, 72 h, NIH-OVCAR-3, repeated experiment, read-out: The results of antibiotic drug inhibiting cancer cell lines (cell viability analysis), NIH-OVCAR-3): 100%
viability at 10 µM ([19]; Homo sapiens, TOV21G, 72 h, TOV-21G, repeated experiment, read-out: The results of antibiotic drug inhibiting cancer cell lines (cell viability analysis), TOV-21G): 44.7%
viability at 10 µM ([20]; Homo sapiens, 72 h, SAS, repeated experiment, read-out: The results of antibiotic drug inhibiting cancer cell lines (cell viability analysis), SAS): 81%
viability at 10 µM ([21]; Homo sapiens, 72 h, U2OS, repeated experiment, read-out: The results of antibiotic drug inhibiting cancer cell lines (cell viability analysis), U2OS): 85.3%
viability at 10 µM ([22]; Homo sapiens, 786-0, 72 h, 786-O, repeated experiment, read-out: The results of antibiotic drug inhibiting cancer cell lines (cell viability analysis), 786-O): 48%
viability [23]: 73.6%

O=C(Nc1ccc([N+](=O)[O-])cc1Cl)c1cc(Cl)ccc1O [Niclosamide (Niclocide)]
The results of antibiotic drug inhibiting cancer cell lines (cell viability analysis), H1650 [1]: 36.77
The results of antibiotic drug inhibiting cancer cell lines (cell viability analysis), A549 [24]: 16.68
The results of antibiotic drug inhibiting cancer cell lines (cell viability analysis), AGS [2]: 23.05
The results of antibiotic drug inhibiting cancer cell lines (cell viability analysis), MKN-45 [3]: 50.74
The results of antibiotic drug inhibiting cancer cell lines (cell viability analysis), HepG2 [4]: 37.55
The results of antibiotic drug inhibiting cancer cell lines (cell viability analysis), Hep3B [5]: 60.79
The results of antibiotic drug inhibiting cancer cell lines (cell viability analysis), LoVo [6]: 41.95
The results of antibiotic drug inhibiting cancer cell lines (cell viability analysis), A375 [7]: 20.26
The results of antibiotic drug inhibiting cancer cell lines (cell viability analysis), BCC [8]: 30.66
The results of antibiotic drug inhibiting cancer cell lines (cell viability analysis), HeLa [9]: 25.4
The results of antibiotic drug inhibiting cancer cell lines (cell viability analysis), C-33A [10]: 39.49
The results of antibiotic drug inhibiting cancer cell lines (cell viability analysis), PC-3 [11]: 42.84
The results of antibiotic drug inhibiting cancer cell lines (cell viability analysis), TSGH-8301 [12]: 35.94
The results of antibiotic drug inhibiting cancer cell lines (cell viability analysis), T24 [13]: 26.49
The results of antibiotic drug inhibiting cancer cell lines (cell viability analysis), MCF-7 [14]: 33.36
The results of antibiotic drug inhibiting cancer cell lines (cell viability analysis), MDA-MB231 [15]: 37.69
The results of antibiotic drug inhibiting cancer cell lines (cell viability analysis), BxPC-3 [16]: 41.93
The results of antibiotic drug inhibiting cancer cell lines (cell viability analysis), AsPC-1 [17]: 40.72
The results of antibiotic drug inhibiting cancer cell lines (cell viability analysis), NIH-OVCAR-3 [18]: 54.68
The results of antibiotic drug inhibiting cancer cell lines (cell viability analysis), TOV-21G [19]: 17.59
The results of antibiotic drug inhibiting cancer cell lines (cell viability analysis), SAS [20]: 23.94
The results of antibiotic drug inhibiting cancer cell lines (cell viability analysis), U2OS [21]: 26.74
The results of antibiotic drug inhibiting cancer cell lines (cell viability analysis), 786-O [22]: 25.52
viability [23]: 23.9%
